Results on 1 compound are retold here after ChEMBL document CHEMBL3259803, “2012 Division of medicinal chemistry award address. Trekking the cannabinoid road: a personal perspective” (J Med Chem, 2014).

Each structure is given as a SMILES string.

For this assay, the target named is Cannabinoid receptor 2 (Homo sapiens) (UniProt P34972). In words: Inhibition of [3H]CP-55940 binding to N-terminal FLAG-tagged/C-terminal 6His-tagged recombinant human CB2 receptor overexpressed in baculovirus infected insect Sf21 cells assessed as reduction of receptor Bmax at 10 nM after 1 hr relative to control.
Cannabinoid receptor 2 (Homo sapiens), sequence (P34972 whole entry): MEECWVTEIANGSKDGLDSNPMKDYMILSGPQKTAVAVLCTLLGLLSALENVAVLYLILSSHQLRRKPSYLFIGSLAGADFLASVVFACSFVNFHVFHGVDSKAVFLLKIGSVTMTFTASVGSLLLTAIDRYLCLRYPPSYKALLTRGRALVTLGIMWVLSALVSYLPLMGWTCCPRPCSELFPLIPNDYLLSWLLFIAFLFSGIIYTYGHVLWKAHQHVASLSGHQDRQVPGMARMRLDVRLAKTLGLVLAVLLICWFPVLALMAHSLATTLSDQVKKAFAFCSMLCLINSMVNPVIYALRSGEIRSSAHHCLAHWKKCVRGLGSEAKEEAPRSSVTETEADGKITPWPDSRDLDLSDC

Turning to `CC(C)(CCCCCCN=C=S)c1ccc2c(c1)OC(C)(C)[C@@H]1CC[C@@H](CO)C[C@@H]21`, the inhibition (commonly the change of the read-out against control, counted positive when it falls) was 75%.
